Key:
[1] = Draves Wetting Test (ASTM D2281-68); type: physicochemical; conditions: 0.05 wt % (actives basis) in DI water; average of 3 measurements
Procedure: A 0.05 wt % (actives basis) solution of amine oxide in deionized (DI) water was used to determine the Draves wet-out time (WOT) in seconds. 0.75 g of surfactant was dispersed in 1,500 ml of DI water. The wet-out time (WOT) in seconds is recorded in Table 14 (average of 3 measurements). LAO is Lauramine oxide (linear hydrophobe), Sigma catalog number 40236.

[2] = Foam height, high shear (Waring blender); type: physicochemical; conditions: for Foam volume (ml) 5 min / Foam volume (ml) Initial: 0.05 wt % in deionized water; for Foam volume (ml) 5 min: after 5 minutes; for Foam volume (ml) Initial: blended on High 30 seconds; for % decrease: foam volume, initial to 5 min
Procedure: A 0.05 wt % (actives basis) solution of the test surfactant was made in deionized water. 250 ml of the test solution was added the beaker of a Waring blender, capped, and then blended on High for 30 seconds and immediately transferred to a 1 L graduated cylinder. The total volume of foam plus liquid, as well as the liquid layer alone was recorded. The foam and liquid volumes were recorded again after 5 minutes.

[3] = Salt thickening, viscosity of SLS/SLES/amine oxide formulation; type: physicochemical; conditions: shear rate 3/s
Procedure: Linear amine oxides tend to increase the viscosity of a formulation containing NaCl in a dose-dependent manner. The viscosity (cP; shear rate 3/s) of a simple formulation was measured as the salt concentration varied from 0 to 5 wt %.

[4] = Stain removal in cold water, brightness L*; conditions: compared to LAO; additive 0.05% active
Procedure: Amine oxides with linear and branched hydrophobes were compared in a screen for stain removal in cold water. Simple laundry liquid formulations were made that included only surfactants and builder.
Standard stain swatches were purchased from Testfabrics, Inc. (West Pittston, Pa.). STC/CFT PC-S-216 is diluted red lipstick on poly/cotton (65/35), and STC/CFT PC-S-132 is high discriminative sebum (synthetic) with pigment on poly/cotton, both made by Center for Testmaterials BV (CFT; The Netherlands). The swatches were pre-cut into 2 inch squares. The test formulation was diluted with DI water to 0.06% total surfactant to make the wash solution. Additives were added at a final concentration of 0.05% active in the wash solution. Stained fabric swatches were added to the wash solution, washed and rinsed at 20° C., and air-dried. The average swatch brightness (L*) for each treatment, and standard deviation, are reported for 3 replicates. […] All treatments are brighter than the untreated stain swatches. The nonionics NPE and LAE7 removed the lipstick and sebum stains to the same brightness.

[5] = High-shear foaming of N-alkyl-N-methylglucamines in commercial blender; type: physicochemical; conditions: 1 wt % test substance in 10 wt % SDS, diluted to 0.05 wt % surfactant
Procedure: The high-shear foaming behavior of linear and branched N-alkyl-N glucamines was investigated, as this can have an impact on their performance in home care applications. […] The solutions were heated to 80° C., ultrasonicated for 1 h, and cooled to room temperature. Finally, the as-obtained solutions were diluted with MilliQ water to obtain a 0.05 wt % surfactant solution. In agreement with the literature on branched hydrophobes, the high-shear foaming tests performed in the commercial blender indicate that the linear N-decyl-N-methylglucamine (IC10 NMG) solution foams relatively more than its branched counterpart solution. For all solutions, the initial foam volume is between 40 and 53 mL. Lauramine oxide (LAO) appears to be foamier than the N-alkyl-N-methylglucamines.

zein protein = conditions: 1% surfactant solution, 30 C, 30 minutes
Text: Amine oxides with linear and branched hydrophobes from Examples 65 and 66 were compared in a screen to predict mildness of surfactants. There is a correlation between the ability of a surfactant to denature a protein and the skin irritation potential of that surfactant. The relationship is believed to result from surfactant binding to proteins like keratin, followed by the denaturation of these proteins, leading to skin irritation. A common screening test involves measuring the amount of zein (a corn protein which is insoluble in water) solubilized by a surfactant solution, the Zein Solubilization Test (Moore et al., 2003 and references therein)
For the test, 0.0750 g of zein protein is transferred into a 1.5 mL centrifuge tube. To this 1.5 mL of 1% surfactant solution is added, mixed, and placed in a 30 C incubator with mild stirring for 30 minutes. After 30 minutes has elapsed, the tube is centrifuged for 30 min at 3600 rpm. The solution is filtered through a pre-weighed 8 micron filter paper, and then dried overnight in a 50° C. oven. The insoluble zein residue is then weighed and the wt % Zein dissolved is calculated using the equation below. Each solution is analyzed in triplicate. The Zein score is normalized to a standard included in each set of tests, in this case LAE10.
% zein dissolved=(total zein added−total zein after drying Total zein added)×100

[6] = Foaming of amine oxide added to commercial laundry liquid (Waring blender); type: physicochemical; design: Difference: unit: ml; conditions: for Difference: initial minus 5 min foam volume
Procedure: The surface foam volume and foam persistence of solutions of the amine oxides with linear and branched hydrophobes from Examples […] were compared. A commercial laundry liquid was diluted in deionized water according to the dosing instructions; 4.2 ml/L Persil Original. The diluted detergent was supplemented with 0%, 2%, 5% (based on wt laundry liquid) of LAO or Branched C12 AO, (2,4-diethyl-N,N-dimethyloctan-1-amine oxide, Example 66), and the solutions mixed briefly and used immediately. 250 ml of each test solution was added the beaker of a Waring blender, capped, and then blended on High for 30 seconds and immediately transferred to a 1 L graduated cylinder. The total volume of foam plus liquid, as well as the liquid layer alone was recorded. The foam and liquid volumes were recorded again after 5 minutes. All tests were performed in triplicate.

[7] = NaCl 0 wt %, 1.4% amine oxide, 4.3% SLS, 4.3% SLES

Row | SMILES | Wet out time [1] [s] | Foam volume (ml) 5 min [2] [mL] | Foam volume (ml) Initial [2] [mL] | % decrease [2] [%] | Viscosity [3, 7] [cP] | Viscosity ([3]; NaCl 0.5 wt %) [cP] | Viscosity ([3]; NaCl 1.0 wt %) [cP] | Viscosity ([3]; NaCl 1.5 wt %) [cP] | Viscosity ([3]; NaCl 2.0 wt %) | Viscosity ([3]; NaCl 2.5 wt %) | Viscosity ([3]; NaCl 3.0 wt %) | Viscosity ([3]; NaCl 3.5 wt %) | Viscosity ([3]; NaCl 4.0 wt %) | Viscosity ([3]; NaCl 4.5 wt %) | Viscosity ([3]; NaCl 5.0 wt %) | other results
1 | CCCCC(CC)CC(C)C[N+](C)(C)[O-] (stereo not shown) [Example 65, 4-ethyl-N,N-2-trimethyloctan-1-amine oxide] | >300 | 0 | 267 | 100 | 2 | 7 | 36 | 257 | 2,050 cP | 3,635 cP | 3,459 cP | 2,021 cP | 670 cP | 288 cP | 148 cP | foam in the wash solution [4]: very little foam
2 | CCCCCCCCCCCC[N+](C)(C)[O-] [LAO, N,N-dimethyl laurylamine oxide, reference compound] | 33 | 500 | 523 | 4 | 2 | 2 | 11 | 115 | 1,494 cP | 7,562 cP | 17,343 cP | 25,302 cP | 27,585 cP | 24,918 cP | 19,368 cP | Foam volume after 5 seconds stirring at speed 1 [5]: 53 mL; Foam volume after 5 minutes settling [5]: 50 mL; Zein score - normalized to LAE10 (zein protein): 4.212; Foam volume After 5 min ([6]; Persil + 2% additive): 473 mL; Difference ([6]; Persil + 2% additive): 54; Foam volume After 5 min ([6]; Persil + 5% additive): 507 mL; Difference ([6]; Persil + 5% additive): 6; Initial foam volume ([6]; Persil Original 4.2 ml/L + 2% additive): 527 mL; Initial foam volume ([6]; Persil Original 4.2 ml/L + 5% additive): 513 mL
